Data reported in EP3031809A1, “2-phenyl-7,7a-dihydro-3aH-pyran[3,4-d]oxazol-6(4H)-ones” (CONSEJO SUPERIOR DE INVESTIGACIONES CIENTIFICAS, priority 2014, dated 2016).

Experiments:
BT474 = test: Sphere test (formation of tumour mammospheres); type: cell-based; design: ACTIVITY IN SPHERE TEST % sphere formation BT474: concentration or dose not given beside the values; conditions: for ACTIVITY IN SPHERE TEST % sphere formation BT474: BT474 mammospheres, 7 days in suspension culture
From the text: (§1) The formation of spheres derived from breast tumours has been described as an effective method for enrichment of cell cultures in CSCs because of the higher ability of cells derived from these culture in generating tumours in vivo when transplanted in immunocompromised mice (Ponti D, et al., (2005) Cancer Res 65(13):5506-11, 34). A directly proportional relationship is therefore established between the percentage of the CSCs subpopulation in the culture and the ability to form spheres. Tumour cell lines growing in suspension are used in these tests in order to enrich the culture in tumour stem cells. CSCs are the only cells capable of proliferating in these conditions, giving rise to structures named spheres. In fact, the cells that grow in suspension acquire the properties of tumour stem cells and are used in the assays used in this patent for identifying drugs effective against them. In principle, compounds that affect tumour stem cells should slow their growth and potentially cause their death. This assay is tuned for breast cancer cell lines according to Leis, O., et al (2012), Oncogene, 31, 1354-1365. Cells are seeded at a density of 1,000 cells/mL on 6-well plates, previously treated with poly-HEMA (poly(2-hydroxyethyl methacrylate)), Sigma-Aldrich) to prevent the cells adhering to the plastic of the plate. A DMEM high glucose medium supplemented with F12 (Nutrient Mixture F-12 HAM, Sigma), B27 (B27 Supplement 50X, Gibco 17504-044) and growth factors, EGF and bFGF is used for culture. Methylcellulose at a final concentration of 0.5% was added to increase the viscosity of the culture medium. Cells were incubated for 7 days at 37° C, adding growth factors (20 ng/mL of each factor), every two days and counted under a microscope.

MCF-7 [1] = test: Sphere test (formation of tumour mammospheres); type: cell-based; design: ACTIVITY IN SPHERE TEST % sphere formation MCF-7: concentration or dose not given beside the values; conditions: for ACTIVITY IN SPHERE TEST % sphere formation MCF-7: MCF-7 mammospheres, 7 days in suspension culture
From the text: as §1

MCF-7 [2] = test: Cell viability (cytotoxicity) assay with MTT; type: cell-based; conditions: for TOXICITY 1uM MCF-7 (% viab. approx .): approximate viability percentage
Procedure: (§2) In order to determine the toxicity of the compound, cell viability assays were performed with MTT on breast tumour lines MCF-7, BT-474 and MDA-MB-436. […] The fact that cell viability was not affected at a high concentration reflects the low toxicity of the compound at the dose required for its effectiveness in functional assays.

BT-474 = test: Cell viability (cytotoxicity) assay with MTT; type: cell-based; conditions: for TOXICITY 1uM BT-474 (% viab. approx .): approximate viability percentage
Procedure: as §2

MDA-MB-436 [3] = test: Sphere test (formation of tumour mammospheres); type: cell-based; conditions: for ACTIVITY IN SPHERE TEST % sphere formation MDA-MB-436: MDA-MB-436 mammospheres, 7 days in suspension culture
From the text: as §1

SOX-2 = test: Reporter of the promoter region of enhancer R1 of SOX-2 in a transiently transfected breast tumour line; type: cell-based; conditions: breast tumour line MDA_MB-436 / HRE9X-LUC; cells cultivated in suspension; Fig. 2
From the text: In order to identify whether the direct inhibitors of mammosphere formation and HIF activity inhibited the transcriptional activation of SOX2, reported in breast cancer CSCs (Leis, O., et al (2012), Oncogene, 31, 1354-1365), breast tumour lines were constructed, transiently transfected with the promoter region of enhancer R1 of SOX-2 by Lipofectamine (Invitrogen) according to the manufacturer's instructions. Their induction on cultivating the cells in suspension was compared and the inhibition of this activation was measured on treating the cells with the inhibitor IQM11PS04.

MDA-MB-436 [4] = test: Cell viability (cytotoxicity) assay with MTT; type: cell-based; conditions: 1µM and tenfold higher dose
Procedure: as §2

HIF = test: HRE-LUC test (9XHRE-LUC luciferase reporter of HIF activity in a breast tumour line); type: cell-based, human; conditions: for inhibition at 5 µM: Homo sapiens, inhibition percentage, read-out: HIF HRE-LUC (% inhib. 5µM)
From the text: In order to identify direct inhibitors of HIF activity, a breast tumour line MCF7 was first constructed containing the deoxyribonucleic acid sequences (DNA) of the region located between the positions -985 and -951 of the human vascular endothelium growth factor (hVEGF), repeated nine times (X9) and fused to the luciferase reporter gene (LUC) (Moreno-Manzano V, et al (2010) JBC 285 (2) 1333-1342). This plasmid called 9XHRE-LUC, kindly given by Dr Manuel Ortiz de Landazuri of the La Princesa Hospital of Madrid, was prepared using a commercial kit (Endofree Maxi-Prep; Qiagen, Inc., Valencia, CA). Transfections were performed with Lipofectamine (Invitrogen) according to the manufacturer's instructions.

Row | SMILES | ACTIVITY IN SPHERE TEST % sphere formation BT474 (BT474) [%] | ACTIVITY IN SPHERE TEST % sphere formation MCF-7 (MCF-7 [1]) [%] | TOXICITY 1uM MCF-7 (% viab. approx .) (MCF-7 [2]) [%] | TOXICITY 1uM BT-474 (% viab. approx .) (BT-474) [%] | ACTIVITY IN SPHERE TEST % sphere formation MDA-MB-436 (MDA-MB-436 [3]) [%] | inhibition of the induction of SOX2 (expression of the promoter region of enhancer R1 of SOX-2) (SOX-2) | inhibitory ability in the formation of mammospheres (BT474; 1 µM added in the final stage of sphere formation, BT474, versus DMSO) | inhibitory ability in the formation of mammospheres (MCF-7 [1]; 1 µM added in the final stage of sphere formation, MCF7, versus DMSO) | percentage of cell death in treated cultures (MDA-MB-436 [4]) | percentage of cell death in treated cultures (MCF-7 [2]; 1µM and tenfold higher dose, MCF-7) | percentage of cell death in treated cultures (BT-474; 1µM and tenfold higher dose, BT-474) | action on HIF-2α (HIF; 1µM and tenfold higher dose) | inhibition at 5 µM (HIF) [%] | inhibition in the expression of luciferase (HRE-LUC test) (HIF; increasing concentrations, Fig. 1) | inhibitory ability in the formation of mammospheres (MDA-MB-436 [3]; 1 µM added in the final stage of sphere formation, MDA-MB-436, versus DMSO)
1 | COc1cccc(C2=NC3COC(=O)CC3O2)c1 (stereo not shown) [IQM11PS01, 2-(3-methoxyphenyl)-7,7a-dihydro-3aH-pyrano[3,4-d]oxazole-6(4H)-one] | 2 | 0 | 115 | 97 | – | – | – | – | – | – | – | – | – | – | –
2 | COc1cc(OC)cc(C2=NC3COC(=O)CC3O2)c1 (stereo not shown) [IQM11PS02, 2-(3,5-dimethoxyphenyl)-7,7a-dihydro-3aH-pyrano[3,4-d]oxazole-6(4H)-one] | 4 | 0 | 99 | 55 | – | – | – | – | – | – | – | – | – | – | –
3 | O=C1CC2OC(c3cc(OCc4ccccc4)cc(OCc4ccccc4)c3)=NC2CO1 (stereo not shown) [IQM11PS03, 2-(3,5-bis(benzyloxy)phenyl)-7,7a-dihydro-3aH-pyrano[3,4-d]oxazole-6(4H)-one] | 12 | 0 | 98 | 97 | 88 | – | – | – | – | – | – | – | – | – | –
4 | CCCOc1cccc(C2=NC3COC(=O)CC3O2)c1 (stereo not shown) [IQM11PS04, 2-(3-propoxyphenyl)-7,7a-dihydro-3aH-pyrano[3,4-d] oxazole-6(4H)-one] | 1 | 0 | 109 | 89 | – | significantly inhibits | significant inhibitory ability | significant inhibitory ability | did not cause a significant increase | did not cause a significant increase | did not cause a significant increase | significant action | 92 | significantly inhibits | significant inhibitory ability
5 | CCCCCOc1cccc(C2=NC3COC(=O)CC3O2)c1 (stereo not shown) [IQM11PS05, 2-(3-pentyloxyphenyl)-7,7a-dihydro-3aH-pyrano[3,4-d]oxazole-6(4H)-one] | 8 | 0 | 92 | 168 | – | – | – | – | – | – | – | – | 96 | – | –
6 | O=C1CC2OC(c3cccc(OCCN4CCOCC4)c3)=NC2CO1 (stereo not shown) [IQM11PS06, 2-(3-(2-morpholinoethoxy)phenyl)-7,7a-dihydro-3aH-pyrano[3,4-d]oxazole-6(4H)-one] | 27 | 20 | 97 | 86 | 79 | – | – | – | – | – | – | – | – | – | –
